The IC50 is the concentration that gives 50% inhibition.

From patent US8546404B2, “Compounds that are ERK inhibitors” (Merck Sharp & Dohme, priority 2005, dated 2013) come the findings set out here.

fully phosphorylated, active Mouse ERK2 protein, sequence (P63085 whole entry): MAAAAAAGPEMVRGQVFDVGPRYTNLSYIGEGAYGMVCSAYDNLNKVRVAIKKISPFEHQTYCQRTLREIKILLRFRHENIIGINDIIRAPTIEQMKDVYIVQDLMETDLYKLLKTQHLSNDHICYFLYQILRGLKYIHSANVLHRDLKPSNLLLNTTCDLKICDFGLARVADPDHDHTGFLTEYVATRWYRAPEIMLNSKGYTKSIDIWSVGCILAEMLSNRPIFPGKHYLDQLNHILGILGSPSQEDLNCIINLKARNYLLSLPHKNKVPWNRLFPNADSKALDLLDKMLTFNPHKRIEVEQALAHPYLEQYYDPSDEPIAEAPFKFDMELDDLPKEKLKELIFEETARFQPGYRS

The assay concerns the target fully phosphorylated, active Mouse ERK2 protein (Mus musculus (Mouse), UniProt P63085). Description: Active ERK2 Assay (IMAP format). It is filed as biochemical. The following applies: read-out: AERK2 IC50. As to the method:
Activated ERK2 activity was also determined in the IMAP assay format using the procedure outlined above. […] Reactions proceeded for 30 minutes before termination by addition of 60 μl IMAP detection beads in binding buffer. Plates were read as above after 30 minute binding equilibration.
On to `CS(=O)(=O)[C@@]1(C(=O)Nc2ccc3[nH]nc(-c4ccnc(C5CC5)c4)c3c2)CCN(CC(=O)N2CC=C(c3ccc(-c4ncccn4)cc3)CC2)C1` [Example 634], for which the IC50 fell in the range of 0.16 to 18 nM.

Regarding `CS(=O)(=O)[C@@]1(C(=O)Nc2ccc3[nH]nc(-c4ccnc(C5CC5)c4)c3c2)CCN(CC(=O)N2CCC(c3ccc(-c4ncccn4)cc3)CC2)C1` [Example 635], the IC50 lay in the range of 0.16 to 18 nM.

With `CS[C@@]1(C(=O)Nc2ccc3[nH]nc(-c4ccnc(C5CC5)c4)c3c2)CCN(CC(=O)N2CC=C(c3ccc(-c4ncccn4)cc3)CC2)C1` [Example 639], the IC50 fell in the range of 0.16 to 18 nM.

As to `CS[C@@]1(C(=O)Nc2ccc3[nH]nc(-c4ccc(F)cc4)c3c2)CCN(CC(=O)N2CCN(c3ccc(-c4ncccn4)cn3)C[C@H]2C)C1` [Example 641], the concentration for half-maximal inhibition (IC50) fell in the range of 0.16 to 18 nM.

`CS[C@@]1(C(=O)Nc2ccc3[nH]nc(-c4ccc(F)cc4)c3c2)CCN(CC(=O)N2CCN(c3ccc(-c4ncccn4)cc3)CC2)C1` [Example 647]: the 50% inhibitory concentration (IC50) lay within 0.16 to 18 nM.

On to `CS[C@@]1(C(=O)Nc2ccc3[nH]nc(-c4ccnc(C5CC5)c4)c3c2)CCN(CC(=O)N2CC=C(c3ccc(-c4ncccn4)cc3F)CC2)C1` [Example 651], for which the half-maximal inhibitory concentration (IC50) lay within 0.16 to 18 nM.

For the compound `CO[C@@]1(C(=O)Nc2ccc3[nH]nc(-c4ccc(F)cc4)c3c2)CCN(CC(=O)N2CC=C(c3ccc(-c4ncc(F)cn4)c(F)c3)CC2)C1` [Example 661], the IC50 was in the range of 0.16 to 18 nM.

Take `CO[C@@]1(C(=O)Nc2ccc3[nH]nc(-c4ccc(F)cc4)c3c2)CCN(CC(=O)N2CCN(c3cc(F)c(-c4ncccn4)cc3F)CC2)C1` [Example 663]: the IC50 fell in the range of 0.16 to 18 nM.

For the compound `CO[C@@]1(C(=O)Nc2ccc3[nH]nc(-c4cc[n+]([O-])c(C)c4)c3c2)CCN(CC(=O)N2CC=C(c3ccc(-c4ncccn4)cc3)CC2)C1` [Example 666], the half-inhibitory concentration (IC50) lay within 0.16 to 18 nM.

As for `CO[C@@]1(C(=O)Nc2ccc3[nH]nc(-c4cc[n+]([O-])c(C5CC5)c4)c3c2)CCN(CC(=O)N2CCC(c3ccc(-c4ncccn4)cc3)CC2)C1` [Example 669], the 50% inhibitory concentration (IC50) fell in the range of 0.16 to 18 nM.

With `CO[C@@]1(C(=O)Nc2ccc3[nH]nc(-c4cc[n+]([O-])c(C5CC5)c4)c3c2)CCN(CC(=O)N2CC=C(c3ccc(-c4ncccn4)cc3)CC2)C1` [Example 670], the IC50 is 0.16 to 18 nM.

Turning to `COc1cc(C2CCN(C(=O)CN3CC[C@@](OC)(C(=O)Nc4ccc5[nH]nc(-c6ccnc(C7CC7)c6)c5c4)C3)CC2)ccc1-c1ncccn1` [Example 672], the concentration for half-maximal inhibition (IC50) fell in the range of 0.16 to 18 nM.

Regarding `COc1cc(C2=CCN(C(=O)CN3CC[C@@](OC)(C(=O)Nc4ccc5[nH]nc(-c6ccnc(C7CC7)c6)c5c4)C3)CC2)ccc1-c1ncccn1` [Example 673], the IC50 was in the range of 0.16 to 18 nM.

As for `CO[C@@]1(C(=O)Nc2ccc3[nH]nc(-c4ccnc(C(F)F)c4)c3c2)CCN(CC(=O)N2CCC(C)(c3ccc(-c4ncccn4)cc3)CC2)C1` [Example 679], the IC50 lay in the range of 0.16 to 18 nM.

Take `CO[C@@]1(C(=O)Nc2ccc3[nH]nc(-c4ccnc(C5CC5)c4)c3c2)CCN(CC(=O)N2CCC(C)(c3ccc(-c4ncccn4)cc3)CC2)C1` [Example 680]: the half-maximal inhibitory concentration (IC50) lay within 0.16 to 18 nM.

Turning to `CO[C@@]1(C(=O)Nc2ccc3[nH]nc(-c4ccnc(C(F)(F)F)c4)c3c2)CCN(CC(=O)N2CC=C(c3ccc(-c4ncccn4)cc3F)CC2)C1` [Example 682], the IC50 fell in the range of 0.16 to 18 nM.

As for `CO[C@@]1(C(=O)Nc2ccc3[nH]nc(-c4ccc(F)cc4)c3c2)CCN(CC(=O)N2CC=C(c3ccc(-c4ncccn4)s3)CC2)C1` [Example 737], the half-maximal inhibitory concentration (IC50) fell in the range of 0.16 to 18 nM.

In the case of `COCCOc1ccc(-c2n[nH]c3ccc(NC(=O)[C@]4(OC)CCN(CC(=O)N5CC=C(c6ncc(-c7ncccn7)cc6F)CC5)C4)cc23)cc1` [Example 738], the IC50 lay in the range of 0.16 to 18 nM.

`COCCOc1cc(-c2n[nH]c3ccc(NC(=O)[C@]4(OC)CCN(CC(=O)N5CC=C(c6ccc(-c7ncccn7)cc6)CC5)C4)cc23)ccc1F` [Example 741]: the IC50 fell in the range of 0.16 to 18 nM.

For `COCc1cc(-c2n[nH]c3ccc(NC(=O)[C@]4(OC)CCN(CC(=O)N5CC=C(c6ccc(-c7ncccn7)cc6F)CC5)C4)cc23)ccc1F` [Example 747], the concentration for half-maximal inhibition (IC50) lay in the range of 0.16 to 18 nM.

Turning to `COCCOc1ccc(-c2n[nH]c3ccc(NC(=O)[C@]4(OC)CCN(CC(=O)N5CC=C(c6ccc(-c7ncccn7)cc6)CC5)C4)cc23)cc1F` [Example 749], the IC50 lay in the range of 0.16 to 18 nM.

`CO[C@@]1(C(=O)Nc2ccc3[nH]nc(-c4ccc(F)c(OCCO)c4)c3c2)CCN(CC(=O)N2CC=C(c3ccc(-c4ncccn4)cc3)CC2)C1` [Example 755]: the half-maximal inhibitory concentration (IC50) was 0.16 to 18 nM.

For `CO[C@@]1(C(=O)Nc2ccc3[nH]nc(-c4ccc(F)c(NCCO)c4)c3c2)CCN(CC(=O)N2CC=C(c3ccc(-c4ncccn4)cc3)CC2)C1` [Example 757], the IC50 lay in the range of 0.16 to 18 nM.

In the case of `CO[C@@]1(C(=O)Nc2ccc3[nH]nc(-c4ccc(NCCO)cc4)c3c2)CCN(CC(=O)N2CC=C(c3ccc(-c4ncccn4)cc3)CC2)C1` [Example 758], the IC50 was 0.16 to 18 nM.

On to `COCCOc1ccc(-c2n[nH]c3ccc(NC(=O)[C@]4(OC)CCN(CC(=O)N5CCC(c6ccc(-c7ncccn7)cc6)CC5)C4)cc23)cc1` [Example 764], for which the half-inhibitory concentration (IC50) lay in the range of 0.16 to 18 nM.

Regarding `COCCOc1ccc(-c2n[nH]c3ccc(NC(=O)[C@]4(OC)CCN(CC(=O)N5CC=C(c6ncc(-c7ncccn7)s6)CC5)C4)cc23)cc1` [Example 765], the 50% inhibitory concentration (IC50) fell in the range of 0.16 to 18 nM.

On to `COCCOc1ccc(-c2n[nH]c3ccc(NC(=O)[C@]4(OC)CCN(CC(=O)N5CC=C(c6ccc(-c7ncccn7)cc6F)CC5)C4)cc23)cc1` [Example 767], for which the IC50 fell in the range of 0.16 to 18 nM.

Regarding `CO[C@@]1(C(=O)Nc2ccc3[nH]nc(-c4ccc(F)cc4)c3c2)CCN(CC(=O)N2CC=C(c3ncc(-c4ncccn4)s3)CC2)C1` [Example 776], the IC50 lay in the range of 0.16 to 18 nM.

As to `CO[C@@]1(C(=O)Nc2ccc3[nH]nc(-c4ccnc(C5CC5)c4)c3c2)CCN(CC(=O)N2CC=C(c3ncc(-c4ncccn4)s3)CC2)C1` [Example 777], the IC50 lay within 0.16 to 18 nM.

`CO[C@@]1(C(=O)Nc2ccc3[nH]nc(C4CCOCC4)c3c2)CCN(CC(=O)N2CC=C(c3ccc(-c4ncccn4)cc3)CC2)C1` [Example 779]: the IC50 lay within 0.16 to 18 nM.

`CO[C@@]1(C(=O)Nc2ccc3[nH]nc(-c4ccnc(C(F)F)c4)c3c2)CCN(CC(=O)N2CC=C(c3ccc(-c4ncccn4)cc3)CC2)C1` [Example 785]: the IC50 lay in the range of 0.16 to 18 nM.

In the case of `CO[C@@]1(C(=O)Nc2ccc3[nH]nc(-c4ccnc(C(F)F)c4)c3c2)CCN(CC(=O)N2CCC(c3ccc(-c4ncccn4)cc3)CC2)C1` [Example 786], the IC50 was 0.16 to 18 nM.

As for `CO[C@@]1(C(=O)Nc2ccc3[nH]nc(-c4ccc(F)c(CO)c4)c3c2)CCN(CC(=O)N2CC=C(c3ccc(-c4ncccn4)cc3)CC2)C1` [Example 787], the IC50 lay within 0.16 to 1.5 nM.

`CO[C@@]1(C(=O)Nc2ccc3[nH]nc(-c4ccnc(C(F)(F)F)c4)c3c2)CCN(CC(=O)N2CCC(c3ccc(-c4ncccn4)cc3)CC2)C1` [Example 788]: the IC50 lay within 0.16 to 18 nM.

`CO[C@@]1(C(=O)Nc2ccc3[nH]nc(-c4ccnc(C)c4)c3c2)CCN(CC(=O)N2CCC(c3ccc(-c4ncccn4)cc3)CC2)C1` [Example 789]: the IC50 was in the range of 0.16 to 18 nM.

For `CO[C@@]1(C(=O)Nc2ccc3[nH]nc(-c4ccc(F)c(F)c4)c3c2)CCN(CC(=O)N2CCC(c3ccc(-c4ncccn4)cc3)CC2)C1` [Example 792], the IC50 lay in the range of 0.16 to 18 nM.

Consider `CO[C@@]1(C(=O)Nc2ccc3[nH]nc(-c4ccc(N(C)C)cc4)c3c2)CCN(CC(=O)N2CCC(c3ccc(-c4ncccn4)cc3)CC2)C1` [Example 793], for which the IC50 lay in the range of 0.16 to 18 nM.

As to `CO[C@@]1(C(=O)Nc2ccc3[nH]nc(-c4ccc(F)c(CO)c4)c3c2)CCN(CC(=O)N2CCC(c3ccc(-c4ncccn4)cc3)CC2)C1` [Example 794], the half-maximal inhibitory concentration (IC50) is 0.16 to 18 nM.

Turning to `CO[C@@]1(C(=O)Nc2ccc3[nH]nc(-c4cn[nH]c4)c3c2)CCN(CC(=O)N2CC=C(c3ccc(-c4ncccn4)cc3)CC2)C1` [Example 796], the IC50 lay within 0.16 to 18 nM.

Take `CO[C@@]1(C(=O)Nc2ccc3[nH]nc(-c4ccc5c(c4)OCO5)c3c2)CCN(CC(=O)N2CCN(c3ccc(-c4ncccn4)cn3)C[C@H]2C)C1` [Example 799]: the 50% inhibitory concentration (IC50) is 0.16 to 18 nM.

In the case of `CCc1cc(-c2n[nH]c3ccc(NC(=O)[C@]4(OC)CCN(CC(=O)N5CC=C(c6nccs6)CC5)C4)cc23)ccn1` [Example 802], the 50% inhibitory concentration (IC50) is 0.16 to 18 nM.

In the case of `CO[C@@]1(C(=O)Nc2ccc3[nH]nc(-c4ccc(OCCO)cc4)c3c2)CCN(CC(=O)N2CC=C(c3ccc(-c4ncccn4)cc3)CC2)C1` [Example 822], the IC50 lay within 0.16 to 18 nM.

Take `CO[C@@]1(C(=O)Nc2ccc3[nH]nc(-c4ccc(F)cc4)c3c2)CCN(CC(=O)N2CC=C(c3ccc(-c4ncc(N)cn4)cc3)CC2)C1` [Example 823]: the half-inhibitory concentration (IC50) fell in the range of 0.16 to 18 nM.
